Data as given in patent US20250032629A1, “NOVEL NUCLEOLIN-BINDING PEPTIDE AND USE THEREOF” (ANYGEN CO., LTD., priority 2020, published 2025).
Ends that are not written are not given here.

Tests used:
[1] = tested on: MCF-10A cells; experiment: Cell proliferation assay (WST-1), AGM-330-PTX; format: cell-based; conditions: Homo sapiens, 48 h
[2] = tested on: MDA-MB-231-luc cells; experiment: Tumor suppression in breast cancer xenograft model; format: in vivo, NPG mice; conditions: for average tumor volume: tail vein
Procedure: FIG. 14B is a schematic representation of the experimental protocol. Here, anesthetized 6-week-old […] NPG mice were inoculated with a 1:1 mix of Matrigel and 1×10^6 MDA-MB-231-luc cells into the mammary fat pad. […] Nuclei were stained with DAPI (blue), and the scale bar is 50 μm. Bar graphs represent the mean±SD, and statistical analyses were performed by one-way ANOVA with Dunnett's multiple comparison. *, **, and *** indicate P<0.05, P<0.01, and P<0.001, respectively. […]
All animal experiments were performed in accordance with IACUC guidelines (GIST-2019-040). For tumorigenesis experiments, anesthetized 6-week-old female NOD-scid Il2rg^−/− mice (NPG™, VITALSTAR) were inoculated in the mammary fat pad with 1×10^6 MDA-MB-231-luc cells in a volume of 100 μl (n=5˜6 for each group). After tumor cell inoculation, when the tumor volume reached approximately 100 mm^3, the mice were randomly divided into the following five groups: (i) control, (ii) low-dose paclitaxel (2 mg/kg), (iii) high-dose paclitaxel (10 mg/kg), (iv) AGM-330 (16.68 mg/kg or 8.34 mg/kg), and (v) AGM-330-PTX (19.05 mg/kg or 10.71 mg/kg). The tumor size was measured twice a week, and the tumor volume was calculated with the following formula:
For the bioluminescent imaging experiment, D-luciferin (150 mg/kg; PerkinElmer) was intraperitoneally injected into each mouse, and an IVIS 100 imaging system (Xenogen, Corporation, Alameda, CA) was used for bioluminescent monitoring. Mice were anesthetized with vaporized isoflurane (BK Pharm, Ilsan, Korea) and placed in an imaging chamber. After 10 min, each animal was imaged with an exposure time of 1 min. All bioluminescent image data were provided by Living Image software (version 4.5.2, PerkinElmer). Photons detected from tumors were converted to average radiance values (photon/see/cm^2/sr), which are quantitative data obtained from a region of intensity (ROI) and include the photons emitted by bioluminescent cells from an assigned rectangular area over the whole body of each mouse.
Following in vitro proliferation analysis on cancer lines, the present inventors investigated whether AGM-330t-PTX could be a potential therapeutic agent in vivo. The present inventors inoculated MDA-MB-231-luc cells into the mammary fat pad of NPG mice. After the subcutaneous tumors grew to 100 mm^3, comparative efficacy studies were performed by dividing the animals into five groups (n=5/group) treated with vehicle (PBS), AGM-330t (16.68 mg/kg), PTX (2 or 10 mg/kg, respectively) or AGM-330t-PTX (19.05 mg/kg) twice a week by tail vein injection (FIG. 14B). Tumor growth was monitored by measuring volumes twice a week with a caliber rule over the course of 3 weeks.
The present inventors also performed histological staining of the excised tumors, and an independent pathologist evaluated the slides.

[3] = molecular target: NCL (Homo sapiens, UniProt P19338); experiment: Double-immunofluorescence confocal microscopy with anti-NCL antibody; format: cell-based; design: GFP-NCL (residues 1-710); expressed in transfected cells; host or cells: HEK293T; conditions: 5 μmol/l, 1 h of incubation
Procedure: FIGS. 11A and 11B show the results of fluorescence confocal microscopy of multiple cancer and normal cells. […] Merge represents AGM-330-FITC, NCL, and nuclear staining by DAPI. AGM-330-FITC represents FITC-conjugated AGM-330. Scale bar is 20 μm. […] Here, plasma membrane, cytosol and nuclear NCL were immunoblotted using anti-NCL antibody. […] Here, MDA-MB-231 cells were transfected for 48 hours. Then, 5 μmol/l of AGM-330-FITC was added for 2 hours. Cells were washed twice with PBS and fixed with 4% paraformaldehyde. Fluorescence was observed using a fluorescent confocal microscope. AGM-330-FITC is FITC-conjugated AGM-330, and the scale bar is 20 μm. […] FIGS. 11G and 11H show in vivo fluorescence images of mice 30 min, 1 h, 6 h, and 24 h after intravenous injections of 10 nmol free Alexa680 (FIG. 11G) or 10 nmol AGM-330-Alexa680 (FIG. 11H) in MDA-MB-231-luc tumor-bearing mice. Here, fluorescence images of the major organs including the heart, spleen, lung, brain, liver, kidney, and tumors were removed from mice with different treatments. […] FIGS. 11I and 11J are graphs showing the average radiant efficiency of Alexa680-associated fluorescence from live imaging of three animals in tumors (FIG. 11I) and different organs (FIG. 11J).
The present inventors evaluated the specificity of AGM-330 to NCL with cell binding assays against different cell lines using fluorescence microscopy. […]

[4] = tested on: MCF-10A and CCD-18Co; experiment: FACS binding of AGM-330-FITC to normal cells; format: cell-based, human; conditions: 2 h of incubation, versus cancer cells
[5] = tested on: MCF-7, MDA-MB-231, HT-29, and HCT-116; experiment: FACS binding of AGM-330-FITC to cancer cells; format: cell-based, human; conditions: 2 h, 37° C., serum-free medium
[6] = tested on: MCF-10A and CCD-18Co; experiment: Cell-growth-on-bead assay, normal cell lines; format: cell-based, human
Procedure: (§1) Here, multiple breast and colorectal cancer cells and normal breast and colorectal cells were re-suspended at 10^6 cells/ml and incubated with beads. All experiments were repeated 3 times, and the scale bar is 200 μm. […] Here, nuclei were stained with DAPI (blue), and scale bar is 50 μm. […] Here, a whole-cell binding assay was performed to determine the cell binding of AGM-330, and the scale bar is 200 μm. […] Fmoc=9-fluorenylmethoxycarbonyl, DMF=dimethylformamide. […] Here, bar graphs represent the mean±SD, and statistical analyses were performed by one-way ANOVA with Dunnett's multiple comparison. *, **, and *** indicate P<0.05, P<0.01, and P<0.001, respectively.
(§2) The beads were washed extensively with double-distilled water and phosphate-buffered saline (PBS; Welgene Inc., Korea) before screening. Cancer cells and normal cells were detached from culture dishes with trypsin/EDTA (Gibco), washed with their corresponding culture medium, resuspended at 10^6 cells/ml, and incubated with OBOC beads in Petri dishes in a humidified CO2 incubator at 37° C. with shaking (60 rpm). Beads bound by cells appeared under a microscope as rosettes with a central bead covered by one or more layers of cells. The positive beads were picked by pipette under an inverted microscope, treated with guanidine-HCL (8 M, 20 min) to remove cells and proteins on the bead surface, and subjected to a second round of screening with normal breast epithelial cells to eliminate false positive binding. Only beads with cell binding at both rounds were sent for peptide sequencing.
(§3) To identify a novel cancer-specific peptide ligand, the present inventors synthesized about 2, 600,000 libraries using 5 g of Tentagel MB NH2 resin (200 μm, 520,000 beads/g; FIG. 3).

[7] = tested on: MDA-MB-231; experiment: Whole-cell binding (cell-growth-on-bead) assay of screened peptide beads; format: cell-based, human
Procedure: as §1, §2, §3

[8] = tested on: MCF-10A; experiment: as above; format: cell-based, human
Procedure: as §1, §2, §3

[9] = tested on: MDA-MB-231 cells; experiment: AGM-330 binding to cells after NCL knockdown (fluorescence confocal microscopy); format: cell-based, human
Procedure: (§4) FIGS. 11A and 11B show the results of fluorescence confocal microscopy of multiple cancer and normal cells. Here, MCF-10A, MCF-7, MDA-MB-231 (FIG. 11A) or CCD-18Co, HT-29, and HCT-116 (FIG. 11B) cells were incubated with 5 μmol/l AGM-330-FITC for 30 min at 37° C. […] Cells were then fixed with 4% paraformaldehyde, and the nuclei were stained with DAPI. Merge represents AGM-330-FITC, NCL, and nuclear staining by DAPI. AGM-330-FITC represents FITC-conjugated AGM-330. Scale bar is 20 μm. […] Here, plasma membrane, cytosol and nuclear NCL were immunoblotted using anti-NCL antibody. […] Here, MDA-MB-231 cells were transfected for 48 hours. Then, 5 μmol/l of AGM-330-FITC was added for 2 hours. […] Fluorescence was observed using a fluorescent confocal microscope. […] FIGS. 11G and 11H show in vivo fluorescence images of mice 30 min, 1 h, 6 h, and 24 h after intravenous injections of 10 nmol free Alexa680 (FIG. 11G) or 10 nmol AGM-330-Alexa680 (FIG. 11H) in MDA-MB-231-luc tumor-bearing mice. Here, fluorescence images of the major organs including the heart, spleen, lung, brain, liver, kidney, and tumors were removed from mice with different treatments. […] FIGS. 11I and 11J are graphs showing the average radiant efficiency of Alexa680-associated fluorescence from live imaging of three animals in tumors (FIG. 11I) and different organs (FIG. 11J). […]

[10] = tested on: human breast cancer cell lines (MCF7 and MDA-MB-231) and human colorectal cancer cell lines (HT-29 and HCT-116); experiment: Cell-growth-on-bead assay with resynthesized AGM-330 beads; format: cell-based; conditions: MCF7, MDA-MB-231, HT-29, HCT-116
Procedure: as §1
The beads were washed extensively with double-distilled water and phosphate-buffered saline (PBS; Welgene Inc., Korea) before screening. Cancer cells and normal cells were detached from culture dishes with trypsin/EDTA (Gibco), washed with their corresponding culture medium, resuspended at 10^6 cells/ml, and incubated with OBOC beads in Petri dishes in a humidified CO2 incubator at 37° C. with shaking (60 rpm). Beads bound by cells appeared under a microscope as rosettes with a central bead covered by one or more layers of cells. […]

[11] = tested on: MDA-MB-231-luc tumor; experiment: In vivo near-infrared fluorescence imaging in xenograft model of human breast cancer; design: species or system mice; conditions: mouse
Procedure: as §4

[12] = tested on: MDA-MB-231 cells; experiment: Confocal imaging of FITC-labeled peptides; format: cell-based, human; conditions: compared with AGM-331 and AGM-332

NCL, sequence (P19338 whole entry, the tested form may be a part): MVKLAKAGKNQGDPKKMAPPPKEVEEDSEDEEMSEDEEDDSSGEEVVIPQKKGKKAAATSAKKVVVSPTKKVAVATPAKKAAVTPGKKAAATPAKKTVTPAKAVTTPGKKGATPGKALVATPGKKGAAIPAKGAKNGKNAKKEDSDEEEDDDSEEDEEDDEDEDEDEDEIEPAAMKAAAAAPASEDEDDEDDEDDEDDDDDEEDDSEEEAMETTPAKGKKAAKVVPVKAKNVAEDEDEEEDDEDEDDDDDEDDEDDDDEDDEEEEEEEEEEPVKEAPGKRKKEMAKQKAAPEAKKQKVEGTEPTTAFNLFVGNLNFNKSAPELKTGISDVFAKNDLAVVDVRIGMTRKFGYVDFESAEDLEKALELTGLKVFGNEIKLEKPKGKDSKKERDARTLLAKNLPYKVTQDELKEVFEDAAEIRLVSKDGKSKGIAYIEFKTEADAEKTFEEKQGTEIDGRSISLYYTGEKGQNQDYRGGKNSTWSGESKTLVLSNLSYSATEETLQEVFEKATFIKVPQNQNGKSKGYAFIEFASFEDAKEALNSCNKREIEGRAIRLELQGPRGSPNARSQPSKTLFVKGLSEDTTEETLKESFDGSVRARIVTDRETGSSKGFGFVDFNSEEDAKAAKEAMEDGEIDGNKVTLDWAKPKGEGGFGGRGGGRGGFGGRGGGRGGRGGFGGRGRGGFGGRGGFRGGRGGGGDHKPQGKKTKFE

For `CC(=O)O[C@H]1C(=O)[C@@]2(C)[C@H]([C@H](OC(=O)c3ccccc3)[C@]3(O)C[C@H](OC(=O)[C@H](O)[C@@H](NC(=O)c4ccccc4)c4ccccc4)C(C)=C1C3(C)C)[C@]1(OC(C)=O)CO[C@@H]1C[C@@H]2O` [PTX, Paclitaxel, reference compound], the IC50 [1] was 22.1 µM, the average tumor volume ([2]; 2 mg/kg twice a week, n=5) was 1671±199 mm^3 and the “final average tumor weight” value ([2]; 2 mg/kg, n=5) was 2.1 ± 0.4 g. The average tumor volume ([2]; 10 mg/kg twice a week, day 21, n=5) was 988±78 mm^3 and the “final average tumor weight” value ([2]; 10 mg/kg, n=5) was 1.5 ± 0.1 g.
“AGM-330-FITC (RHGAMVYLK; also: FITC-labelled (site not given here))” was tested, and the “colocalization with NCL staining” value [3] was “overlap between NCL and AGM-330-FITC”, the “binding to normal cells (MFI)” value [4] was “significant decrease in binding” and the “cancer cell binding (increase in MFI relative to untreated cells)” value [5] was “significant cancer cell binding”.
With “RHGAMVYLK [AGM-330, name also used for its PEGylated MAP dendrimeric forms]” the “binding to normal cell lines MCF-10A and CCD-18Co” value [6] was “bound either very weakly or not at all”, the “binding to MDA-MB-231” value [7] was “strong preferential binding” and the “binding to the human normal breast cell line MCF-10A” value [8] was “no or only weak binding”. For the same molecule, the “fluorescence signal (AGM-330 binding) in siNCL1-treated cells” value [9] was “little or no fluorescence signal”, the “time until beads were fully covered by cancer cell lines” value [10] was at most 15 min and the “distribution in tumor tissue versus normal organs (NIRF images)” value [11] was “mainly accumulated throughout the tumor tissue rather than normal organs”. For the same molecule, the “difference in the average tumor volume versus vehicle (PBS)-treated mice” value ([2]; 16.68 mg/kg) was “no significant difference” and the “fluorescence signals of FITC-labeled peptide on MDA-MB-231 cells” value [12] was “strongest fluorescence signals”.
